The values that follow come from patent publication US20250163052A1, “cGAS INHIBITORS AND USES THEREOF” (Cornell University, priority 2022, published 2025).

One data set concerns MEF2C target genes. As to the kind of experiment: Single-nuclei RNA-seq of excitatory and inhibitory neurons, overlap with MEF2C target genes. It is filed as in vivo, mouse. The note with it: P301S mice, 150 mg/kg diet for three months; snRNA-seq. As for the experimental part: Hippocampi isolation from frozen mouse hippocampi was adapted from a previous study with modifications (Grubman et al., 2019; Habib et al., 2017). All procedures were done on ice or at 4° C. In brief, post-mortem brain tissue was placed in 1500 μl of Sigma nuclei PURE lysis buffer (Sigma, NUC201-1KT) and homogenized with a Dounce tissue grinder (Sigma, D8938-1SET) with 20 strokes with pestle A and 15 strokes with pestle B. The homogenized tissue was filtered through a 35-μm cell strainer, then centrifuged at 600 g for 5 min at 4° C. and washed three times with 1 ml of PBS containing 1% BSA, 20 mM DTT and 0.2 U μl^−1 recombinant RNase inhibitor. […] The FACS-sorted suspension of DAPI-stained nuclei were counted and diluted to a concentration of 1000 nuclei per microliter in PBS containing 0.04% BSA. […]
Gene counts were obtained by aligning reads to the mm10 genome with Cell Ranger software (v.3.1.0) (10× Genomics). To account for unspliced nuclear transcripts, reads mapping to pre-mRNA were counted. […] We further removed genes expressed in no more than 2 cells, cells with unique gene counts over 4,000 or less than 200, and cells with high fraction of mitochondrial reads (>5%). […] To identify gene ontology and pathways enriched in the differentially expressed genes (DEGs), DEGS were analysed using (MSigDB) gene annotation database (Liberzon et al., 2011; Subramanian et al., 2005). […]

A further data set deals with h-cGAS (Homo sapiens, UniProt Q8N884). As to the kind of experiment: Cell-free human cGAS enzyme inhibition assay (ATP depletion, Kinase-Glo Max). Type of data set: biochemical. To be noted: human cGAS. (Kinase-Glo reads ATP consumption through a luciferase reaction.)
h-cGAS, sequence (Q8N884 whole entry): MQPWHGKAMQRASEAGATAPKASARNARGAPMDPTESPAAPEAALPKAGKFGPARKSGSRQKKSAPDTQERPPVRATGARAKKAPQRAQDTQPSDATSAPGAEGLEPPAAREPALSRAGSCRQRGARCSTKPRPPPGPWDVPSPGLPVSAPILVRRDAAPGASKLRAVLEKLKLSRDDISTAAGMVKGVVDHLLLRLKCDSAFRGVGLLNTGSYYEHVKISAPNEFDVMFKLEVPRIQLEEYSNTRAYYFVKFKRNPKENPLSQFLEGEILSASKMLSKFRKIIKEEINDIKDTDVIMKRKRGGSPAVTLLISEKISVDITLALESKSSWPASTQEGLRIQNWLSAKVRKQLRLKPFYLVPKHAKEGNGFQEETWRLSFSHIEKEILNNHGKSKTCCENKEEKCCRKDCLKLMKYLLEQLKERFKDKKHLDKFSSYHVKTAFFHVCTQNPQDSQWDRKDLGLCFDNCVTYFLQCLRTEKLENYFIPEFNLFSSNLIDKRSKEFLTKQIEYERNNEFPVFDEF
The target in a further data set is m-cGAS (Mus musculus, UniProt Q8C6L5). As to the kind of experiment: Cell-free mouse cGAS enzyme inhibition assay (ATP depletion, Kinase-Glo Max). It is filed as biochemical. The note with it: mouse cGAS.
m-cGAS, sequence (Q8C6L5 whole entry): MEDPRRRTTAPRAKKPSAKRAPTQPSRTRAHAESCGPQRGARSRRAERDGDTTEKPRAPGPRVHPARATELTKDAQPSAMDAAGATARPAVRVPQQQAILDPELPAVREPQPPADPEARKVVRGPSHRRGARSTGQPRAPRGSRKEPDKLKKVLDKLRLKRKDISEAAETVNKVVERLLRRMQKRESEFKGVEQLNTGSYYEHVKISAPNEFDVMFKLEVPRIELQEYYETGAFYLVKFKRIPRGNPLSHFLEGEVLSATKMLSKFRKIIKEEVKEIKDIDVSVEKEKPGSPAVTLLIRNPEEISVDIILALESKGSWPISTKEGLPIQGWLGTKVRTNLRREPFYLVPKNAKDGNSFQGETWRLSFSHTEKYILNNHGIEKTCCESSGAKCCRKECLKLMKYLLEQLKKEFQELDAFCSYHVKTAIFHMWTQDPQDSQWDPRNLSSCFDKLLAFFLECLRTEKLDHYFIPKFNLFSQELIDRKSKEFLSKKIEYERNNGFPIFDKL
The nature of data set [1]: Protein binding in mouse brain homogenates. Type of data set: in vitro ADME.

One may read the IC50 as the point on the concentration scale where inhibition reaches its midpoint. `Cn1c2c(c3ccc(Cl)c(F)c31)CN(C(=O)CO)CC2` [TDI-6570, reference compound]: in the data set on MEF2C target genes, the “Enrichment of MEF2C target genes in DEGs of excitatory and inhibitory neurons” value was “strong enrichment of MEF2C target genes”. Also, the IC50 at h-cGAS came out at 138 nM; on m-cGAS it was 12.8 nM. Moreover, in data set [1], the “% Recovery” value is 89.39%. Also, the LogK in data set [1] was determined as 2.38. The “% Remaining at 6 hr” value in data set [1] (6 hr) is 94.51%.
